Experiment [1] has as its target T1, S1P1 receptor (S1P1 expressing RH7777 membranes) (Homo sapiens, UniProt P21453).
T1 construct: expressed in transfected cells; host or cells: RH7777 cells (membranes)
Put plainly: S1P1 GTPγS assay. It is filed as biochemical. The following applies: tested in one of the above S1P1 assays (two GTPγS formats). The method, boiled down:
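Membranes from RH7777 cells expressing human S1P1 (1.5 μg/well) precoupled 30 min on ice to WGA SPA beads in 20 mM HEPES pH 7.4, 10 mM MgCl2, 100 mM NaCl, with 10 μM GDP and 90 μg/ml saponin. [35S]-GTPγS 0.5 nM final added with compound; SPA signal read immediately.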

The target in experiment [2] is T2, S1P1 (PathHunter CHO-K1 EDG1 β-Arrestin cell line) (Homo sapiens, UniProt P21453).
T2 construct: host or cells: PathHunter CHO-K1 EDG1 β-Arrestin cell line
T2 sequence (P21453 whole entry): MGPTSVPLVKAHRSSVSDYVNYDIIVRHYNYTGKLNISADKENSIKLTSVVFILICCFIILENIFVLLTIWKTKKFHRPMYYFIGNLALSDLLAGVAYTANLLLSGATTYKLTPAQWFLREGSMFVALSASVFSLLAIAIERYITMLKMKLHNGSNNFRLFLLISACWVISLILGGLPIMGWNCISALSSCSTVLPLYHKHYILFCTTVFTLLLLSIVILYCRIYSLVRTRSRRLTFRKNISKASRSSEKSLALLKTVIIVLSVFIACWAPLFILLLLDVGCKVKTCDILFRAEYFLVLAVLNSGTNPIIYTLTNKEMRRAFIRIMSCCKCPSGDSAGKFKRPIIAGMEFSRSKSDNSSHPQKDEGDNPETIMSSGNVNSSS
T2 sequence (P32121 whole entry partner): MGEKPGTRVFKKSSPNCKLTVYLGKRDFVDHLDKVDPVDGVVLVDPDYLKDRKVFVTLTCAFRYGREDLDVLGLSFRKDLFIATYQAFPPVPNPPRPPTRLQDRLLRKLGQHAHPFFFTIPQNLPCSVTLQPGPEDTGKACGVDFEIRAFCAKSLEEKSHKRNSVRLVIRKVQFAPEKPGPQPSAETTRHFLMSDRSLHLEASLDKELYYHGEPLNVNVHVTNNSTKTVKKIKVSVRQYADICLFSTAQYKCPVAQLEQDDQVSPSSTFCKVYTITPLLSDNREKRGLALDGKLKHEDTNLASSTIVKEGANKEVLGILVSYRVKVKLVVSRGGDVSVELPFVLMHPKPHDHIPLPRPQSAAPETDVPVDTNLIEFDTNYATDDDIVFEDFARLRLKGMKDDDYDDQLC
Description: S1P-1 β-Arrestin recruitment assay. Type of experiment: cell-based. Conditions: CHO-K1 EDG1 β-Arrestin cells, chemi-luminescence. The method, boiled down: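 CHO-K1 cells expressing S1P1 and β-arrestin 2 fused to complementing β-galactosidase fragments, at 1×10^4 cells/well in pH 7.4 buffer with 0.1% BSA. Compound exposure 90 min at 37 °C then 15 min room temperature; chemiluminescent substrate added for 60 min before luminescence read.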
On the technique in general: Activated receptors often draw arrestin, which recruitment assays turn into a signal.

Here are results for 15 molecules from patent US20120101083A1, “S1P1 AGONISTS COMPRISING A BICYCLIC N-CONTAINING RING” (GLAXO GROUP LIMITED, priority 2009, published 2012).

Structures can show the parent of a compound that is named as a salt.

T1 sequence (P21453 whole entry): as the sequence (P21453 whole entry) above

`Cc1c(-c2noc(-c3ccc(OC(C)C)c(C#N)c3)n2)ccc2c1CCN(CC(=O)N[C@H](C)CO)CC2` [Example 159]: the figures for the EC50 in experiment [1] and in experiment [2] were ≤ 100 nM and ≤ 10 nM, respectively.
For `Cc1c(-c2noc(-c3ccc(OC(C)C)c(C#N)c3)n2)ccc2c1CCN(CC(=O)N[C@@H](C)CO)C2` [Example 119, 2-[6-(5-{3-cyano-4-[(1-methylethyl)oxy]phenyl}-1,2,4-oxadiazol-3-yl)-5-methyl-3,4-dihydro-2(1H)-isoquinolinyl]-N-[(1S)-2-hydroxy-1-methylethyl]acetamide hydrochloride], in that order: ≤ 10 nM and ≤ 10 nM.
For `CC(C)Oc1ccc(-c2nc(-c3ccc4c(c3)CCN(C(CO)CO)CC4)no2)cc1C#N` [Example 68, 5-(3-{3-[2-hydroxy-1-(hydroxymethyl)ethyl]-2,3,4,5-tetrahydro-1H-3-benzazepin-7-yl}-1,2,4-oxadiazol-5-yl)-2-[(1-methylethyl)oxy]benzonitrile], in that order: ≤ 100 nM and ≤ 100 nM.
For `Cc1c(-c2noc(-c3ccc(OC(C)C)c(C#N)c3)n2)ccc2c1CCN(C(=O)CNC[C@@H](C)O)C2` [Example 129, 5-[3-(2-{N-[(2R)-2-hydroxypropyl]glycyl}-5-methyl-1,2,3,4-tetrahydro-6-isoquinolinyl)-1,2,4-oxadiazol-5-yl]-2-[(1-methylethyl)oxy]benzonitrile hydrochloride], in that order: > 10000 nM and ≤ 10 nM.
For `CC(C)Oc1ccc(-c2nc(-c3cccc4c3CCN(C(=O)[C@@H](N)CO)C4)no2)cc1C#N` [Example 89, 2-[(1-methylethyl)oxy]-5-[3-(2-L-seryl-1,2,3,4-tetrahydro-5-isoquinolinyl)-1,2,4-oxadiazol-5-yl]benzonitrile hydrochloride], the concentration giving a half-maximal response (EC50) in experiment [1] was 1 nM; in experiment [2], ≤ 10 nM.
As to `Cc1c(-c2noc(-c3ccc(OC(C)C)c(C#N)c3)n2)ccc2c1CCN(CC(=O)NC[C@@H](C)O)CC2` [Example 147, 2-[7-(5-{3-cyano-4-[(1-methylethyl)oxy]phenyl}-1,2,4-oxadiazol-3-yl)-6-methyl-1,2,4,5-tetrahydro-3H-3-benzazepin-3-yl]-N-[(2R)-2-hydroxypropyl]acetamide], the EC50 in experiment [1] was ≤ 100 nM; in experiment [2], ≤ 10 nM.
In the same order, the values of `CCNC(=O)CCCN1CCc2ccc(-c3noc(-c4ccc(OC(C)C)c(C#N)c4)n3)cc2CC1` [Example 44, 4-[7-(5-{3-cyano-4-[(1-methylethyl)oxy]phenyl}-1,2,4-oxadiazol-3-yl)-1,2,4,5-tetrahydro-3H-3-benzazepin-3-yl]-N-ethylbutanamide] are ≤ 100 nM and ≤ 10 nM.
Regarding `CCOc1ccc(-c2nc(-c3ccc4c(c3)CCN(CC(O)CO)CC4)no2)cc1C#N` (stereo not drawn) [Example 70, 5-{3-[3-(2,3-dihydroxypropyl)-2,3,4,5-tetrahydro-1H-3-benzazepin-7-yl]-1,2,4-oxadiazol-5-yl}-2-(ethyloxy)benzonitrile], the concentration giving a half-maximal response (EC50) in experiment [1] and in experiment [2] was ≤ 100 nM throughout.
For `N#Cc1cc(-c2nc(-c3ccc4c(c3)CCN(C[C@H](O)CO)CC4)no2)ccc1OCC(F)(F)F` [Example 135, 5-(3-{3-[(2S)-2,3-dihydroxypropyl]-2,3,4,5-tetrahydro-1H-3-benzazepin-7-yl}-1,2,4-oxadiazol-5-yl)-2-[(2,2,2-trifluoroethyl)oxy]benzonitrile], the EC50 in experiment [1] and in experiment [2] was ≤ 100 nM throughout.
With `Cc1c(-c2noc(-c3ccc(OC(C)C)c(C#N)c3)n2)ccc2c1CCN(C(CO)CO)C2` [Example 64, 5-(3-{2-[2-hydroxy-1-(hydroxymethyl)ethyl]-5-methyl-1,2,3,4-tetrahydro-6-isoquinolinyl}-1,2,4-oxadiazol-5-yl)-2-[(1-methylethyl)oxy]benzonitrile], the half-maximal effective concentration (EC50) is ≤ 1000 nM in experiment [1] and ≤ 10 nM in experiment [2].
For `Cc1c(-c2noc(-c3ccc(OC(C)C)c(C#N)c3)n2)ccc2c1CCN(C[C@H](O)CO)CC2` [Example 153, 5-(3-{3-[(2S)-2,3-dihydroxypropyl]-6-methyl-2,3,4,5-tetrahydro-1H-3-benzazepin-7-yl}-1,2,4-oxadiazol-5-yl)-2-[(1-methylethyl)oxy]benzonitrile hydrochloride], in that order: ≤ 100 nM and ≤ 100 nM.
Consider `CNCCC(=O)N1CCc2c(ccc(-c3noc(-c4ccc(OC(C)C)c(C#N)c4)n3)c2C)C1` [Example 40, 2-[(1-methylethyl)oxy]-5-{3-[5-methyl-2-(N-methyl-b-alanyl)-1,2,3,4-tetrahydro-6-isoquinolinyl]-1,2,4-oxadiazol-5-yl}benzonitrile hydrochloride], for which the 50% effective concentration (EC50) in experiment [1] is ≤ 100 nM; in experiment [2], ≤ 10 nM.
`CC(C)Oc1ccc(-c2nc(-c3cccc4c3CCN(C(=O)CN)C4)no2)cc1C#N` [Example 87, 5-[3-(2-glycyl-1,2,3,4-tetrahydro-5-isoquinolinyl)-1,2,4-oxadiazol-5-yl]-2-[(1-methylethyl)oxy]benzonitrile hydrochloride]: the concentration giving a half-maximal response (EC50) in experiment [1] and in experiment [2] was ≤ 10 nM each time.
Turning to `CC(C)Oc1ccc(-c2nc(-c3cccc4c3CCN(C(=O)[C@H](N)CO)C4)no2)cc1C#N` [Example 90, 2-[(1-methylethyl)oxy]-5-[3-(2-D-seryl-1,2,3,4-tetrahydro-5-isoquinolinyl)-1,2,4-oxadiazol-5-yl]benzonitrile hydrochloride], the EC50 in experiment [1] is ≤ 10 nM; in experiment [2] it was ≤ 100 nM.
In the same order, the values of `Cc1c(-c2noc(-c3ccc(OC(C)C)c(C#N)c3)n2)ccc2c1CCN(CC(=O)NCCO)C2` [Example 122, 2-[6-(5-{3-cyano-4-[(1-methylethyl)oxy]phenyl}-1,2,4-oxadiazol-3-yl)-5-methyl-3,4-dihydro-2(1H)-isoquinolinyl]-N-(2-hydroxyethyl)acetamide hydrochloride] are ≤ 10 nM and ≤ 10 nM.

As a reminder, the EC50 is the concentration that produces a half-maximal response. A lower EC50 goes with an effect from little substance.
